The text below walks through data of patent US20150289512A1, “METHOD FOR PROMOTING PLANT GROWTH” (SUMITOMO CHEMICAL COMPANY, LIMITED, priority 2012, published 2015).

The structures appear in SMILES notation. Some results are limits rather than exact numbers.

Common to all, as to type: in vivo
In test [1] the test system is Rice (variety: Nipponbare). The test can be described thus: Test Example 2: promotion of root growth by hydroponics of rice, 1 ppm. Particulars: hydroponic solution containing the test compound at 1 ppm, average of 4 or 5 individuals; for change in vivo at 1 ppm: Oryza sativa, read-out: Relative value of length of seminal root (%-untreated control plot). On the procedure:
(§1) Test for Evaluating Promotion of Root Growth by Hydroponics of Rice
(§2) Rice (variety: Nipponbare)
A DMSO solution, which contained one of the compounds 1, 3, 11, 12, 14, 15, 17, 21, 28, 30, 33, 34, 35, 36, 37, 38, 40, 41, 43, 44, 45, 46, 47, 49, 50, 51, 52, 53, 54, 55, 56, 61, 62, 63, 65, 67, 68, 69, 70, 73, 74, 75, 76, 77, 80, 82, 83, 85 and 86 of the present invention at a concentration of 10,000 ppm, was added to Hoagland hydroponic solution (Hoagland and Arnon, California Agricultural Experiment Station 1950 Circular 347 pp. 34) of ¼-fold concentration at a volume ratio of 1/10,000. In this manner, hydroponic solutions containing one of the compounds 1, 3, 11, 12, 14, 15, 17, 21, 28, 30, 33, 34, 35, 36, 37, 38, 40, 41, 43, 44, 45, 46, 47, 49, 50, 51, 52, 53, 54, 55, 56, 61, 62, 63, 65, 67, 68, 69, 70, 73, 74, 75, 76, 77, 80, 82, 83, 85 and 86 of the present invention at 1 ppm were prepared respectively. As an untreated control plot, a hydroponic solution obtained by adding DMSO to Hoagland hydroponic solution of ¼-fold concentration at a volume ratio of 1/10,000 was used. Rice seeds were soaked in a 1% aqueous sodium hypochlorite solution for 10 minutes, then soaked in a 70% ethanol solution for surface sterilization, and then washed with distilled water. The sterilized seeds were soaked in a hydroponic solution containing the test compound described above at 1 ppm and incubated in a dark place for 3 days at 28° C. to perform treatment for hastening germination.
Thereafter, 30 ml of hydroponic solution containing the test compound at 1 ppm was dispensed in a plastic tube (diameter of 20 mm×height of 113 mm) of which the side was covered with cardboard to block light. A float prepared using a styrene board and vinyl mesh was floated, and the rice seeds that had undergone the treatment for hastening germination were placed on the float on the surface of the hydroponic solution. The seeds were cultivated for 3 days at 26° C., an illuminance of 4,000 lux of the top surface of the tube, a humidity of 50%, and a day length of 16 hours.
The nursery plants of rice obtained after cultivation were measured in terms of the length of seminal root by using WinRHIZO system (manufactured by Regent Instruments Inc). For each test plot, an average of the measured values of the seminal root of 4 or 5 individuals was determined.

Test [2] relates to Rice (variety: Nipponbare). The test is described as follows: Test Example 1: promotion of root growth by hydroponics of rice, 10 ppm. Particulars: hydroponic solution containing the test compound at 10 ppm, average of 4 or 5 individuals; for change in vivo at 10 ppm: Oryza sativa, read-out: Relative value of length of seminal root (%-untreated control plot). On the procedure: as §1, §2
Rice seeds were soaked in a 1% aqueous sodium hypochlorite solution for 10 minutes, then soaked in a 70% ethanol solution for surface sterilization, and then washed with distilled water. The sterilized seeds were soaked in a hydroponic solution containing the test compound described above at 10 ppm and incubated in a dark place for 3 days at 28° C. to perform treatment for hastening germination.
Thereafter, 30 ml of hydroponic solution containing the test compound at 10 ppm was dispensed in a plastic tube (diameter of 20 mm×height of 113 mm) of which the side was covered with cardboard to block light. A float prepared using a styrene board and vinyl mesh was floated, and the rice seeds that had undergone the treatment for hastening germination were placed on the float on the surface of the hydroponic solution. The seeds were cultivated for 3 days at 26° C., an illuminance of 4,000 lux of the top surface of the tube, a humidity of 50%, and a day length of 16 hours.
(§3) The nursery plants of rice obtained after culturing were measured in terms of the length of seminal root by using WinRHIZO system (manufactured by Regent Instruments Inc). For each test plot, an average of the measured values of the seminal root of 4 or 5 individuals was determined.

A further test deals with Nicotiana benthamiana. The test is described as follows: Test Example 4: growth promotion under low-temperature stress by hydroponics of Nicotiana benthamiana, 10 ppm. The note with it: 10 ppm in medium, low-temperature stress 7 days at 1.5±1.0° C., green leaf area 3 days later, equation (1). On the procedure:
Test for Evaluating Growth Promotion Under Low-Temperature Stress by Hydroponics of Nicotiana benthamiana
A DMSO solution, which contained one of the compounds 1, 8, 9, 13, 18, 19, 22, 23, 29, 32, 33, 34, 39, 40, 41, 43, 44, 51, 53, 54, 55, 56, 58, 60, 62, 63, 64, 65, 67, 69, 71, 73, 74, 75, 77, 79, 82, 83 and 86 of the present invention at a concentration of 10,000 ppm, was prepared. The DMSO solution of the compound of the present invention was added at a volume ratio of 1/1,000 to the Murashige•Scoog medium of a ½-fold concentration (a medium containing 2.3 g of mixed salts for the Murashige•Scoog medium (manufactured by Wako Pure Chemical Industries, Ltd.), 200 mg of Myo-inositol (manufactured by Sigma-Aldrich Co. LLC.), 2 mg of nicotinic acid (manufactured by Wako Pure Chemical Industries, Ltd.), 2 mg of pyridoxine hydrochloride (manufactured by Wako Pure Chemical Industries, Ltd.), 20 mg of thiamine hydrochloride (manufactured by Wako Pure Chemical Industries, Ltd.), 20 g of sucrose (manufactured by Wako Pure Chemical Industries, Ltd.), and 1 g of MES (manufactured by DOJINDO LABORATORIES) per 1 L of water and having pH adjusted to 5.8), thereby preparing a medium containing the compound of the present invention at a concentration of 10 ppm.
Seeds of Nicotiana benthamiana were seeded in the 5 μL of the medium and cultured overnight at 22° C. Thereafter, 45 μL of the medium containing the compound of the present invention at a concentration of 10 ppm was added thereto, and the seeds are cultivated for 7 days at 22° C., an illuminance of 4,000 lux, and a day length of 16 hours, and the nursery plants raised from the Nicotiana benthamiana were treated with the compound. Moreover, instead of the above medium, a test plot, which was obtained by performing the same treatment by using a medium prepared by adding DMSO to the Murashige•Scoog medium of ½-fold concentration at a volume ratio of 1/1,000, was used as a control plot not treated with the compound.
The nursery plants of the Nicotiana benthamiana treated with the compound were subjected to low-temperature treatment by being cultivated for 7 days at 1.5±1.0° C., an illuminance of 2,000 lux, and a day length of 16 hours.
The nursery plants of the Nicotiana benthamiana having undergone the low-temperature stress treatment were cultivated for 3 days at 22° C., an illuminance of 4,000 lux, and a day length of 16 hours. Thereafter, the area of green leaf was quantified by Scanalyzer HTS (manufactured by LemnaTec GmbH). Moreover, the value of the control plot not treated with the compound that had not yet been subjected to the low-temperature stress treatment was measured in the same manner. A value of a relative leaf area was calculated based on the following equation (1), and if the value of a relative leaf area was 5 or greater, the compound was evaluated to have a mitigating effect. As a result of the evaluation, it was confirmed that when the plant was treated with one of the compounds 1, 8, 9, 13, 18, 19, 22, 23, 29, 32, 33, 34, 39, 40, 41, 43, 44, 51, 53, 54, 55, 56, 58, 60, 62, 63, 64, 65, 67, 69, 71, 73, 74, 75, 77, 79, 82, 83 and 86 of the present invention at 10 ppm, the value of a relative leaf area was 5 or greater, compared to the area of green leaf of the control plot not treated with compound. Accordingly, it was confirmed that the treatment using the compound of the present invention brings about a growth promotion effect.
Relative leaf area=100*(a green area of a plot treated with the compound of the present invention−a green area of a control plot not treated with the compound of the present invention)/(a green area of a control plot not treated with the compound of the present invention that has not yet been subjected to low-temperature stress treatment−a green area of a control plot not treated with the compound of the present invention) Equation (1): […]

In test [3] the test system is Rice (variety: Nipponbare). The test is described as follows: Test Example 3: promotion of root growth by hydroponics of rice, 0.1 ppm. The note with it: Oryza sativa, hydroponic solution containing the test compound at 0.1 ppm, average of 4 or 5 individuals, read-out: Relative value of length of seminal root (%-untreated control plot). On the procedure:
as §1, §2
A DMSO solution, which contained one of the compounds 2, 6, 7, 16, 20, 33, 34, 36, 37, 38, 40, 41, 43, 44, 45, 46, 47, 48, 50, 51, 52, 53, 54, 55, 56, 61, 64, 67, 68, 71, 72, 73, 74, 75, 76, 79, 80, 81 and 83 of the present invention at a concentration of 1,000 ppm, was added to Hoagland hydroponic solution (Hoagland and Arnon, California Agricultural Experiment Station 1950 Circular 347 pp. 34) of ¼-fold concentration at a volume ratio of 1/10,000. In this manner, hydroponic solutions containing one of the compounds 2, 6, 7, 16, 20, 33, 34, 36, 37, 38, 40, 41, 43, 44, 45, 46, 47, 48, 50, 51, 52, 53, 54, 55, 56, 61, 64, 67, 68, 71, 72, 73, 74, 75, 76, 79, 80, 81 and 83 of the present invention at 0.1 ppm were prepared respectively. As an untreated control plot, a hydroponic solution obtained by adding DMSO to Hoagland hydroponic solution of ¼-fold concentration at a volume ratio of 1/10,000 was used.
Rice seeds were soaked in a 1% aqueous sodium hypochlorite solution for 10 minutes, then soaked in a 70% ethanol solution for surface sterilization, and then washed with distilled water. The sterilized seeds were soaked in a hydroponic solution containing the test compound described above at 0.1 ppm and incubated in a dark place for 3 days at 28° C. to perform treatment for hastening germination.
Thereafter, 30 ml of hydroponic solution containing the test compound at 0.1 ppm was dispensed in a plastic tube (diameter of 20 mm×height of 113 mm) of which the side was covered with cardboard to block light. A float prepared using a styrene board and vinyl mesh was floated, and the rice seeds that had undergone the treatment for hastening germination were placed on the float on the surface of the hydroponic solution. The seeds were cultivated for 3 days at 26° C., an illuminance of 4,000 lux of the top surface of the tube, a humidity of 50%, and a day length of 16 hours.
as §3

For the compound `Cn1c(C(=O)O)cc2ccccc21` [Compound 14], the “Relative value of length of seminal root (%-untreated control plot)” value (“Relative value … (%-untreated control plot)” below) in test [1] is listed as above 5%.
In the case of `O=C(O)c1nc2ccccc2[nH]1` [Compound 18], the change in vivo at 10 ppm in test [2] is above 5%. In the test with Nicotiana benthamiana, this compound registered a relative leaf area at 10 ppm of at least 5%.
With `COC(=O)c1nc2ccc(C(F)(F)F)cc2n1C` [Compound 25, methyl 1-methyl-6-trifluoromethylbenzimidazole-2-carboxylate], the change in vivo at 10 ppm in test [2] was above 5%.
Take `COC(=O)c1cc2ccccc2n1C` [Compound 15]: the change in vivo at 1 ppm in test [1] is above 5%.
On to `O=C(O)c1cc2cccc(C(F)(F)F)c2[nH]1` [Compound 11], for which the “Relative value … (%-untreated control plot)” value in test [1] is recorded as above 5%.
`COC(=O)c1nc2ccccc2[nH]1` [Compound 19]: the “Relative value … (%-untreated control plot)” value in test [2] is above 5%.
As to `COC(=O)c1oc2ccccc2c1O` [Compound 35], the change in vivo at 10 ppm in test [2] was above 5%. Besides, in test [1], the change in vivo at 1 ppm is above 5%.
`O=C(O)c1cc2ccc(C(F)(F)F)cc2o1` [Compound 47]: the change in vivo at 10 ppm in test [2] is above 5%. The change in vivo at 1 ppm in test [1] was above 5%. Besides, in test [3], the change in vivo at 0.1 ppm is above 5%.
On to `CCOC(=O)c1cc2cccc(C(F)(F)F)c2[nH]1` [Compound 12], for which the “Relative value … (%-untreated control plot)” value in test [1] is listed as above 5%.
Turning to `COC(=O)c1oc2ccccc2c1NS(=O)(=O)c1ccccc1` [Compound 61], the change in vivo at 10 ppm in test [2] was above 5%. The change in vivo at 1 ppm in test [1] was above 5%. Moreover, the change in vivo at 0.1 ppm in test [3] was above 5%.
For `O=C(Oc1ccccc1)c1oc2ccc(C(F)(F)F)cc2c1C(F)(F)F` [Compound 72], the change in vivo at 0.1 ppm in test [3] was above 5%.
With `COC(=O)c1nc2cccnc2n1C` [Compound 26, methyl 3-methyl-3H-imidazo[4,5-b]pyridine-2-carboxylate], the change in vivo at 10 ppm in test [2] is above 5%.
Turning to `Nc1c(C(=O)O)oc2ccc(C(F)(F)F)cc12` [Compound 49], the change in vivo at 10 ppm in test [2] is above 5%. In addition, the change in vivo at 1 ppm in test [1] is above 5%.
Turning to `COC(=O)c1cc2ccccc2[nH]1` [Compound 13], in test [2], the “Relative value … (%-untreated control plot)” value is listed as above 5%.
Take `COc1ccc(NC(=O)c2cc3cc(C(F)(F)F)ccc3[nH]2)c(OC)c1` [Compound 10, N-(2,4-dimethoxyphenyl)-5-trifluoromethylindole-2-carboxamide]: in test [2], the change in vivo at 10 ppm was above 5%.
Take `COC(=O)c1oc2ccccc2c1N(C(=O)C(F)(F)F)C(=O)C(F)(F)F` [Compound 38]: the change in vivo at 10 ppm in test [2] was above 5%. Moreover, the change in vivo at 1 ppm in test [1] is above 5%. In addition, in test [3], the change in vivo at 0.1 ppm was above 5%.
Regarding `CCOC(=O)c1cc2ccc(C(F)(F)F)cc2o1` [Compound 46], the change in vivo at 10 ppm in test [2] is above 5%. Moreover, the change in vivo at 1 ppm in test [1] is above 5%. In test [3], the change in vivo at 0.1 ppm was above 5%.
